The record followed here is paper PMC10706804, “Synthesis and Characterization of a New Class of Chromene-Azo Sulfonamide Hybrids as Promising Anticancer Candidates with the Exploration of Their EGFR, hCAII, and MMP-2 Inhibitors Based on Molecular Docking Assays” (International Journal of Molecular Sciences, 2023).

Structures are written as SMILES. “And” between values parts separate entries of the source, which are not always exact repeats. Equal entries are not always repeated.

The target of experiment [1] is T1, EGFR (Homo sapiens, UniProt P00533).
T1 construct: purchased BPS Bioscience 40321
T1 sequence (P00533 25-1210): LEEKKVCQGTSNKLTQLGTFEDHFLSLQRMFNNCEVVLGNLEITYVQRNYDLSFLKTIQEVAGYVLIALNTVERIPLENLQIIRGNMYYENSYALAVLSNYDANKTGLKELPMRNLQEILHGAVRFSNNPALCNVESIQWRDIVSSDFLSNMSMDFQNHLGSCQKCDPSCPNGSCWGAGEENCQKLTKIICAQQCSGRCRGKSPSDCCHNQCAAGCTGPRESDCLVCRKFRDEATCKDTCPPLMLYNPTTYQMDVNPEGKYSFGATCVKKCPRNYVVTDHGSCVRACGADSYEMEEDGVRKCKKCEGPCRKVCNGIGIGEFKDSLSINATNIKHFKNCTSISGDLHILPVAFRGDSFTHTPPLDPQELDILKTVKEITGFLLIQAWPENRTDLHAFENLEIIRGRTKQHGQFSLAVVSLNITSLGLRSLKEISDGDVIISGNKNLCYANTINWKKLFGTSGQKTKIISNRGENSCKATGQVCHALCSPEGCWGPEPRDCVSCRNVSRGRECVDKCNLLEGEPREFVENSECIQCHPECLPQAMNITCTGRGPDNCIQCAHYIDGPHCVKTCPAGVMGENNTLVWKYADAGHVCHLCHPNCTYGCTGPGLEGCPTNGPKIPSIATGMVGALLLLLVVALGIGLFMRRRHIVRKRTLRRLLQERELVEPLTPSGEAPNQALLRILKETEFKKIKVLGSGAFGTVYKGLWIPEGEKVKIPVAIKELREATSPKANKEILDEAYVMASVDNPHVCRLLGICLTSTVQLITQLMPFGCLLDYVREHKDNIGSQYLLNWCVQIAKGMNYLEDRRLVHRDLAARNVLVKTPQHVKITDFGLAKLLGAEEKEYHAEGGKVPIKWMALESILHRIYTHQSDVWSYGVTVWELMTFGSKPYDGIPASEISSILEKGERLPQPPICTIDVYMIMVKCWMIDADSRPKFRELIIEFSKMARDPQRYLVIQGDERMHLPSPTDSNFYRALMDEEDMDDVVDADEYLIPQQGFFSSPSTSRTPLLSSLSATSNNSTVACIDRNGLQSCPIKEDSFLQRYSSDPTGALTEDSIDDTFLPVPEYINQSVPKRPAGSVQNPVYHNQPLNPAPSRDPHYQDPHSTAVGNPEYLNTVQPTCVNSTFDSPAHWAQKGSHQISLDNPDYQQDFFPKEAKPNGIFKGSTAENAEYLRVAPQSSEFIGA
Briefly: EGFR kinase assay kit inhibition. The experiment is classed as biochemical. As for the experimental part: After ADP is converted into ATP, ATP can be used as the substrate of the luciferase-catalyzed reaction to generate an optical signal, which is positively correlated with kinase activity. […] The plate was incubated at 30 °C for 40 min.

The test system of experiment [2] is human breast adenocarcinoma (MCF-7). Briefly: MTT cytotoxicity, MCF-7. The experiment is classed as cell-based. The text has this: (§1) Three human tumorous cell lines—human colon carcinoma (HCT-116), human liver carcinoma (HepG-2), and human breast adenocarcinoma (MCF-7)—were subjected to cytotoxic behavior, employing the MTT analysis. Moreover, a normotoxicity assessment was employed against normal Vero cell line (African Green Monkey Kidney cells) for selected active compounds to determine their therapeutic safety. […] The inhibitory performance of derivatives 1a–e, 2a–e, 7a–g, 8, and 11a–e, and its derived relation to the cell proliferation of these three cancers, are described in Table 1 and Figure 2. […] Characteristically, the inhibitory activity was enhanced via incorporating the azo moieties in compounds 2a–b.
(§2) The cytotoxic activity was appraised using the 3-(4,5-dimethylthiazol-2-yl)-2,5-diphenyl-tetrazolium bromide (MTT) colorimetric assay as reported previously.

Experiment [3] deals with T2, cytosolic hCA II (Bos taurus, UniProt P00921).
T2 construct: purchased Sigma–Aldrich C2624
T2 sequence (P00921 whole entry): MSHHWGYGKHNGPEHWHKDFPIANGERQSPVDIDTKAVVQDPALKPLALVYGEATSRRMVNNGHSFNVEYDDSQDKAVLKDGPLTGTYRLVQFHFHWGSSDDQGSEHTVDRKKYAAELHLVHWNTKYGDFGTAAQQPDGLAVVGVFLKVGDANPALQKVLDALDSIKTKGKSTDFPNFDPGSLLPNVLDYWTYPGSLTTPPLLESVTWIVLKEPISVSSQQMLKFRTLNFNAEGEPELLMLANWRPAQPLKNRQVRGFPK
Briefly: CA-II inhibition assay (esterase activity, 4-NPA). Format: biochemical, bovine. To be noted: reduction in esterase activity, 4-NPA substrate; read-out: IC50 against hCA II. As for the experimental part: The CA-II inhibition assay for the analyzed molecules was performed based on the measurement of the reduction in esterase activity on the substrate p-nitrophenyl acetate (4-NPA). Briefly, the total mixture volume was 200 µL in a well containing 140 µL (20 mM HEPES) Tris buffer (pH 7.4), 20 µL of the enzyme (from bovine, Sigma–Aldrich, C2624, St. Louis, MO, USA), and 20 µL (0.5 mg/mL in DMSO) of the investigated derivatives, which were mixed and incubated at 25 °C for 15 min. […] The results, attained after the reactions were completed in triplicate, were quantified by the equation given below. The percent inhibition for each sample was calculated as Inhibition (%) = [(C − T)/C] × 100, where C (i.e., control) = total enzyme activity without inhibitor and T (i.e., test sample) = activity in the presence of test compound.

Experiment [4] relates to human liver carcinoma (HepG-2). Nature of the experiment: MTT cytotoxicity, HepG-2. The experiment is classed as cell-based.
Source text: as §1, §2

In experiment [5] the test system is human colon carcinoma (HCT-116). Nature of the experiment: MTT cytotoxicity, HCT-116. Format: cell-based. Conditions: HCT-116 cells.
Source text: as §1, §2

Experiment [6] deals with T3, MMP-2 (Homo sapiens, UniProt P08253).
T3 sequence (P08253 110-660): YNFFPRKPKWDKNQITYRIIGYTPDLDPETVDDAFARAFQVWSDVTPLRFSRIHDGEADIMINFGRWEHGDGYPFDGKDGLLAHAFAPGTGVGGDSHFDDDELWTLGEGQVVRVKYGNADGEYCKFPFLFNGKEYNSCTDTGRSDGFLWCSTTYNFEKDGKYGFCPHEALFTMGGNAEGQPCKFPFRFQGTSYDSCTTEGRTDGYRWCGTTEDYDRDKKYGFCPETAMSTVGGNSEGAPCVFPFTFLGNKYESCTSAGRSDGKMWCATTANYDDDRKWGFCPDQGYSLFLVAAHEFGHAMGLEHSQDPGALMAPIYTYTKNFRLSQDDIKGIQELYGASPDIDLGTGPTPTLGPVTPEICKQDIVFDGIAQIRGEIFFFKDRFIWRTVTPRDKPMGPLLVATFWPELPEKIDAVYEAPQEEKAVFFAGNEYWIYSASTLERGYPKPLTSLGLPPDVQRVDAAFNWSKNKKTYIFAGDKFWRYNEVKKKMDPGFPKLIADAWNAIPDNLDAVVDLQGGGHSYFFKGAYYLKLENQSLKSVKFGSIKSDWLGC
Nature of the experiment: MMP-2 Inhibitor Screening Assay Kit (colorimetric). Conditions: for IC50: IC50 on MMP-2, MMP-2 inhibitor screening kit; for anti-MMP-2 inhibition at the first concentration: first concentration of two-fold serial dilutions.

The subject of experiment [7] is normal Vero cell line (Vero CCL-81). Briefly: Normotoxicity assessment, normal Vero cell line. The experiment is classed as cell-based, African Green Monkey. Conditions: Chlorocebus sabaeus; normal Vero CCL-81 cells, cytotoxicity.
Source text: as §1, §2

[8] abbreviates: Homo sapiens, MCF7, MCF-7 cells.
Setting [9] is: Homo sapiens, HepG2, HepG-2 cells.

Broadly, the IC50 is the concentration needed to halve the response being measured. For `CCOC(=O)C1=C(N)Oc2cc(O)c(/N=N/c3ccc(S(N)(=O)=O)cc3)cc2C1c1ccccc1` (centres unmarked) [7a], the IC50 in experiment [1] is 23.4 µM; in experiment [2] (setting [8]) it was 13.05 ± 0.12 µM; in experiment [3] it was 301 µM; in experiment [4] (setting [9]) it was 3.92 ± 0.09 µM; in experiment [5] (Homo sapiens), 6.82 ± 0.19 µM; in experiment [6], ~113 µM and 113 µM. In addition, the “anti-MMP-2 inhibition at the first concentration” value in experiment [6] is around 73.89%.

Regarding `CCOC(=O)C1=C(N)Oc2cc(O)c(/N=N/c3ccc(S(N)(=O)=O)cc3)cc2C1c1ccc(C)cc1` (centres unmarked) [7b], the IC50 in experiment [2] (setting [8]) stood at 29.5 ± 3.29 µM; in experiment [3], 711 µM; in experiment [4] (HepG-2 cells) it was 45.7 ± 2.88 µM; in experiment [4] (setting [9]) it was 51.9 µM; in experiment [5] (Homo sapiens), 17.3 ± 4.29 µM.

Turning to `CCOC(=O)C1=C(N)Oc2cc(O)c(/N=N/c3ccc(S(N)(=O)=O)cc3)cc2C1c1ccc(OC)cc1` (centres unmarked) [7c], the IC50 in experiment [2] (setting [8]) came out at 104 ± 2.65 µM; in experiment [4] (HepG-2 cells), 51.8 ± 1.02 µM; in experiment [4] (setting [9]), 34.9 µM; in experiment [5] (Homo sapiens), 70.8 ± 1.85 µM.

`CCOC(=O)C1=C(N)Oc2cc(O)c(/N=N/c3ccc(S(N)(=O)=O)cc3)cc2C1c1ccc([N+](=O)[O-])cc1` (centres unmarked) [7d]: the IC50 is 97.9 ± 3.08 µM in experiment [2] (setting [8]), 34.9 ± 2.79 µM in experiment [4] (HepG-2 cells), 45.9 µM in experiment [4] (setting [9]) and 114 ± 5.34 µM in experiment [5] (Homo sapiens).

For the molecule `CCOC(=O)C1=C(N)Oc2cc(O)c(/N=N/c3ccc(S(N)(=O)=O)cc3)cc2C1c1ccc(F)cc1` (centres unmarked) [7e], the IC50 in experiment [2] (setting [8]) worked out at 6.15 ± 1.23 µM; in experiment [4] (setting [9]), 2.92 ± 3.52 µM; in experiment [5] (Homo sapiens), 8 ± 3.45 µM.

Take `CCOC(=O)C1=C(N)Oc2cc(O)c(/N=N/c3ccc(S(N)(=O)=O)cc3)cc2C1c1ccc(Cl)cc1` (centres unmarked) [7f]: the IC50 in experiment [1] turned out to be 12.7 µM; in experiment [2] (setting [8]), 3.93 ± 0.09 µM; in experiment [3], 164 µM; in experiment [4] (HepG-2 cells), 1.74 ± 0.07 µM; in experiment [4] (setting [9]), 1.63 µM; in experiment [5] (Homo sapiens) it was 3.57 ± 0.11 µM. Also, in experiment [6], the IC50 is ~64.8 µM and 64.8 µM. Also, the “IC50 (µM) HCT-116” value in experiment [5] is recorded as “good potency”. The “anti-MMP-2 inhibition at the first concentration” value in experiment [6] is recorded as “approximately 80.93%”.

In the case of `CCOC(=O)C1=C(N)Oc2cc(O)c(/N=N/c3ccc(S(N)(=O)=O)cc3)cc2C1c1ccc(Cl)cc1Cl` (centres unmarked) [7g], the IC50 worked out at 1.72 ± 2.5 µM in experiment [2] (setting [8]); 314 µM in experiment [3]; 1.63 ± 2.36 µM in experiment [4] (HepG-2 cells); 1.74 µM in experiment [4] (setting [9]); 1.74 ± 4.06 µM in experiment [5] (Homo sapiens). Besides, the “IC50 (µM) HCT-116” value in experiment [5] is recorded as “good potency”.

For the molecule `CCOC(=O)C1=C(N/C(=C(/C#N)C(=O)OCC)c2ccc(C)cc2)Oc2cc(O)c(/N=N/c3ccc(S(N)(=O)=O)cc3)cc2C1c1ccc(C)cc1` (centres unmarked) [11a], the IC50 came to 20.8 ± 1.38 µM in experiment [2] (setting [8]), 139 ± 5.26 µM in experiment [7], 32.2 ± 1.79 µM in experiment [4] (setting [9]) and 12.2 ± 0.96 µM in experiment [5] (Homo sapiens).

Regarding `CCOC(=O)C1=C(N/C(=C(/C#N)C(=O)OCC)c2ccc(C)cc2)Oc2cc(O)c(/N=N/c3ccc(S(=O)(=O)NC(C)=O)cc3)cc2C1c1ccc(C)cc1` (centres unmarked) [11b], the figures for the IC50 in experiment [2] (setting [8]), in experiment [4] (setting [9]) and in experiment [5] (Homo sapiens) were 66 ± 3.91 µM, 147 ± 6.41 µM and 39.3 ± 2.63 µM, respectively.

Consider `CCOC(=O)C1=C(N/C(=C(/C#N)C(=O)OCC)c2ccc(C)cc2)Oc2cc(O)c(/N=N/c3ccc(S(=O)(=O)NC(=N)N)cc3)cc2C1c1ccc(C)cc1` (centres unmarked) [11c], for which the IC50 is 105 ± 5.78 µM in experiment [2] (setting [8]), 328 ± 8.26 µM in experiment [7], 73.8 ± 2.89 µM in experiment [4] (setting [9]) and 79.5 ± 3.65 µM in experiment [5] (Homo sapiens).

For the molecule `CCOC(=O)C1=C(N/C(=C(/C#N)C(=O)OCC)c2ccc(C)cc2)Oc2cc(O)c(/N=N/c3ccc(S(=O)(=O)Nc4nccs4)cc3)cc2C1c1ccc(C)cc1` (centres unmarked) [11d], the IC50 came to 9.13 ± 0.93 µM in experiment [2] (setting [8]); 267 µM in experiment [3]; 278 ± 6.45 µM in experiment [7]; 4.71 ± 0.47 µM in experiment [4] (setting [9]); 6.32 ± 0.68 µM in experiment [5] (Homo sapiens).

Turning to `CCOC(=O)C1=C(N/C(=C(/C#N)C(=O)OCC)c2ccc(C)cc2)Oc2cc(O)c(/N=N/c3ccc(S(=O)(=O)Nc4cc(C)no4)cc3)cc2C1c1ccc(C)cc1` (centres unmarked) [11e], the IC50 was determined as 23.6 ± 2.05 µM in experiment [2] (setting [8]), 162 ± 6.48 µM in experiment [7], 17.3 ± 1.06 µM in experiment [4] (setting [9]) and 18.4 ± 1.19 µM in experiment [5] (Homo sapiens).

Consider `N.N.[Cl][Pt][Cl]` [Cisplatin, reference compound], for which the values for the IC50 in experiment [2] (MCF-7 cells), in experiment [4] (HepG-2 cells) and in experiment [5] were 14.66 ± 0.03 µM, 10.9 ± 0.19 µM and 8.36 ± 0.07 µM, respectively.

As to `COc1cccc2c1C(=O)c1c(O)c3c(c(O)c1C2=O)C[C@@](O)(C(=O)CO)C[C@@H]3O[C@H]1C[C@H](N)[C@H](O)[C@H](C)O1` [Doxorubicin, reference compound], the values for the IC50 in experiment [2] (setting [8]), in experiment [4] (setting [9]) and in experiment [5] (Homo sapiens) were 0.64 ± 0.03 µM, 0.66 ± 0.02 µM and 0.9 ± 0.07 µM, respectively.

Take `CNC(=O)c1cc(Oc2ccc(NC(=O)Nc3ccc(Cl)c(C(F)(F)F)c3)cc2)ccn1` [Sorafenib, reference compound]: the IC50 in experiment [6] was ~12.3 µM and 12.3 µM.
